In a melting point compilation (Tetko et al.; mined from patent text by program, amines drawn as free bases though some values may be those of a salt):

SMILES | melting point [°C]
CC1(C)OC(=O)Nc2ccc(-c3cc(F)cc(Cl)c3)cc21 | 193 to 194
O=Cc1ccc(NS(=O)(=O)c2ccccc2)cc1O | 150 to 157
COc1ccc(C#N)c2c1OC1(COCC1OC)C2 (centres undefined) | 151 to 156
CC1(C)Oc2ccc(C#N)cc2C(OC2=CC(=O)CC2)C1(C)O (centres undefined) | 204 to 206
CCOC(=O)CCC=Cc1ccc2ccccc2c1O | 63 to 64
CCc1nc2c(N)nc3ccccc3c2n1CCCSC | 210 to 212
COCc1cc2c(N)cccc2cn1 | 105
O=C(Nc1ccc(C(=O)N2CCCc3ccccc32)cc1)c1cccc(O)c1 | 217 to 218
O=C(O)C1Cc2ccc(Cl)cc2NC1=O (centres undefined) | 158 to 160
CCn1c(COC(=O)OCc2nc(C(C)C)c(Sc3cc(Cl)cc(Cl)c3)n2CC)nc(C(C)C)c1Sc1cc(Cl)cc(Cl)c1 | 73 to 76
CC(=NNc1ccc(-c2ccc(=O)n(C)n2)cc1)c1ccc(O)cc1O | 263 to 268
NCc1cccc(-n2cnc3cnc4ccc(Cl)cc4c32)c1 | 148 to 149
N#Cc1ccc([C@H]2[C@@H]3C(=O)N(Cc4ccc5c(c4)OCO5)C(=O)[C@@H]3[C@@H]3CSCN32)cc1 (racemic) | 142 to 143
Cc1ccc(-n2nc(C(F)F)cc2-c2ccc(S(C)(=O)=O)cc2)cc1Cl | 137 to 139
CCC1=Nc2ccccc2CC(c2cccnc2)N1C (centres undefined) | 72 to 75
Oc1ncc(-c2cccc(C(F)(F)F)c2)cn1 | 283 to 285
COc1ccncc1-c1cccc(OC2SCC(O)C(O)C2O)c1 (centres undefined) | 195
CNS(=O)(=O)OCCOc1ccc(Cl)cc1 | 101 to 104
C=CC(=O)NC(C)(C)COc1ccc(Cl)cc1 | 95 to 96
O=CNNc1ccnc2c(NC(=O)c3c(Cl)cccc3Cl)cccc12 | 261 to 263
CC(C)CCCC(C)NC1=NS(=O)(=O)c2cc(Cl)ccc2N1 (centres undefined) | > 220
N#CC1=C(C2CCN(C(=O)c3ccccc3)CC2)Nc2n[nH]cc2C1c1cccc(C#N)c1Br (centres undefined) | > 280
CC(=O)Nc1ccc(S(=O)(=O)CCCCNS(=O)(=O)c2ccc(C)cc2)cc1 | 93 to 95

SMILES | melting point [°C]
CC(=O)n1nc(-c2cccc([N+](=O)[O-])c2)n2nc(C)cc12 | 207 to 210
COc1ccc(C2(C#N)CCC(=CC(=O)O)CC2)c2c1OCCO2 (centres undefined) | 203 to 204
c1cn2ccnc2c(N2CCOCC2)n1 | 127
CCCNC(=O)C(C)=Cc1ccc2c(c1)c(Cc1ccc(C(=O)O)cc1OC)cn2CC(=O)N(C)C | 232 to 235
C#CCCCCCCCCC(=O)N[C@H]1CCCNC(=O)C1 | 73 to 75
COc1cc([N+](=O)[O-])c([N+](=O)[O-])cc1O | 172
Cc1cc(Oc2ccc(NC(=O)N(C)C)cc2)nc(Cl)n1 | 176 to 178
C(=C\c1nc(COc2ccc(CCCCn3ccnn3)cc2)co1)/c1ccccc1 | 125 to 126
Cc1ccccc1OCCOS(N)(=O)=O | 81.5 to 83
CN1CCc2c(Cl)ccc(CO)c2CC1 | 136 to 140
CC(C)(C)c1ccc(-c2ccc3c(c2)C=C(C(=O)O)CCS3(=O)=O)cc1 | 289 to 291
COC(=O)c1cccc(C)c1NS(=O)(=O)c1nc2nc(C)cc(C)n2n1 | 181 to 182
CNC(=O)c1ccc(COCc2csc3nc(C(=O)NCc4cccc(OC)c4)[nH]c(=O)c23)cc1 | 190 to 191
O=c1[nH]nc(-c2cc(Cl)ccc2O)n1-c1ccc(C(F)(F)F)cc1 | 236 to 238
CC1(C)CCOC1=C(Oc1ccc(Cl)cc1)n1ccnc1 | 85 to 88
CCC(Oc1ccc(Cl)c(C(F)(F)F)c1)C(=O)NCc1ccccc1 (centres undefined) | 93 to 95
COc1cc(OC)cc(N2CCN(C(=O)N(C)c3cc(C(C)OC)c(C)nc3OC)CC2)c1 (centres undefined) | 117 to 119
O=C1CCC(N2C(=O)c3ccc([N+](=O)[O-])cc3C2=O)C(=O)N1 (centres undefined) | 228 to 230
Cn1c(=O)c2cnc(N)nc2n(-c2ccccc2)c1=O | > 300
O=C(O)c1c(-c2ccc(Cl)c(Cl)c2)csc1N1C(=O)c2ccccc2C1=O | 198 to 199
CC(C)NC(=S)Nc1ccc(Cl)c(-c2ccnc3c(C(=O)c4cccs4)cnn23)c1 | 194 to 195
CC(=O)c1cccc(OCCCCCC(=O)O)c1 | 70 to 72
O=C(O)C(O)=CC(=O)c1cc(Cc2ccccc2)cn(Cc2ccccc2)c1=O | 158 to 159

SMILES | melting point [°C]
Nc1nc(N)nc(-c2nccc3ccccc23)n1 | > 250
C[C@@H](NC(=O)c1c[nH]c2ncc(-c3nn(C)c4cc(F)ccc34)nc12)C1(C#N)CCCC1 | 300 to 315
C=CCc1c(O)cc(C)c2ccc(=O)oc12 | 177
CCOC(=O)C1=C(C(F)(F)F)NC(N)(C(F)(F)F)C(C(=O)OCC)S1 (centres undefined) | 87.5 to 89
CCOC(=O)c1cnc(Nc2ccccc2O)[nH]c1=O | 289 to 291
Nc1cccc(-c2cncc(OC[C@@H]3CCN3)c2)c1 | 85 to 87
CN1CCN(C2=Nc3cscc3C(=CC#N)c3cscc32)CC1 | 148 to 151
CC(C)Oc1ccc(C=C2CCn3c2nc2cc(NC(=O)C(=O)O)ccc2c3=O)cc1 | 225 to 229
CCOC(=O)c1sc(Oc2ccc3c(c2)OCC3)c2c1CCc1cnn(C)c1-2 | 137 to 138
O=Cc1ccc(CN2C(=O)c3ccccc3C2=O)c(Cl)c1 | 123 to 126
CCC12CCC(=O)C=C1c1c(cc(OCC(=O)OCC3COC(C)(C)O3)c(Cl)c1Cl)C2 (centres undefined) | 143 to 145
CNS(=O)(=O)c1ccc(C)cc1C(=O)O | 140 to 141
COC(=O)c1nc(N)ccc1O | 170 to 173
CCc1ccc(OCc2ccc(CO)c(CO)c2)cc1-c1ccc(C(O)(CC)CC)cc1C(C)C | 109
Cc1nc(NC(=O)c2cnn3c(C(F)F)cc(-c4ccc(C(F)(F)F)cc4)nc23)sc1S(=O)(=O)NC(CO)CO | 217
c1ccc(-c2cnc3c(c2)nnc2cncn23)cc1 | 225 to 227
CCCN(C)CCCN1CCN(c2cc(-c3ccnc(NCc4cccc(OC)c4)n3)cc3ccc(OC)cc23)CC1 | 156 to 160
COc1ccc(N2C(=O)C3Cc4c(ncn4Cc4ccccc4)CN3C2=S)cc1 (centres undefined) | 100 to 120
CC1(C)OC(=S)Nc2ccc(-c3ccc(F)c(F)c3)cc21 | 209 to 211
COC(=O)c1ccc2c(c1)S(=O)(=O)NCN2C1CC1 | 178 to 180
CCOC(=O)C1(NC(=O)c2ccc3c(Cl)cnc(Cl)c3c2)CCCC1 | 178 to 180
CCc1ccc(SCc2c(C(C)C)nc(C(C)C)c(CO)c2-c2ccc(F)cc2)cc1 | 102 to 103
CCCCc1cn(CCCC)c(=O)n1Cc1ccc(-c2cccnc2-c2nnn[nH]2)cc1 | 178 to 180

Continued, values first:

melting point [°C] | SMILES
247 | Cc1c(-c2cccnc2)ccc2c(=O)c(C(=O)O)cn(C3CC3)c12
211 to 212 | N#CCc1ccc(CCOc2ccc(CC3SC(=N)NC3=O)cc2)nc1 (centres undefined)
51 to 54 | CCOc1ccc(C(C)=NOCCO)cc1
334 to 337 | O=C(O)c1ccc2nc(-c3ccc(C(=O)NC4CCCCC4)cc3)[nH]c2c1
172 to 176 | O=C(O)C1=Cc2cc(S(=O)(=O)Cc3ccccc3)ccc2OC1C(F)(F)F (centres undefined)
93 to 95 | COc1ccc(N2CCN(CCN3CC(C)(C)C3)C2=O)cc1Cl
140 to 142 | COc1cc(Nc2c(C#N)cnc3cc(/C=C/CCN4CCCCC4)c(OC)cc23)c(Cl)cc1Cl
115 to 116 | CCCCCC(C)Nc1nnc(-c2cccc(Oc3ccc(C(C)(C)C)cc3)c2)s1 (centres undefined)
121 to 123 | CC(C)N(C(=O)n1oc(=O)n(C)c1=O)c1ccc(Cl)cc1
92.4 to 93.5 | CCOC(=O)CCc1coc2c(O[Si](C)(C)C(C)(C)C)c3ccccc3c(C)c12
78 to 81 | O=C1CSCc2nc(-c3ccccc3)ccc21
129 to 132 | CCCOc1cc(=O)n(CCC)c(=O)n1Cc1ccc(-c2ccccc2C2NOC(=O)N2)cc1 (centres undefined)
184 | COC(=O)c1cc([N+](=O)[O-])c(N)c(F)c1F
212 to 213 | CC1=CC(Cl)C(Cl)(c2cc(C)no2)C=C1C(=O)O (centres undefined)
132 to 133 | C/C=C/c1cc(OC)c2oc(-c3ccc(O)c(OC)c3)c(C)c2c1
292 to 296 | Cc1[nH]c2ccc(C3=NNC(=O)NC3C)cc2c1C (centres undefined)
82 to 86 | CCCCCCCCCCCCCCCCCCOc1cc(OC(=O)C(c2ccccc2)c2ccccc2)cc(C(=O)O)c1
182 to 184 | CCOC(=O)C1Cc2ccc(Cl)cc2NC1=O (centres undefined)
252 to 253 | COc1ccc(Cl)cc1-c1c(N)c(=O)[nH]c2cc(C(F)(F)F)c(Cl)cc12
151 to 153 | O=C1C[C@@H]2[C@@H](/C=C/C(=O)C3CCCCC3)[C@H](OC(=O)c3ccccc3)C[C@@H]2O1
148 to 156 | COc1ccc(CC(=O)Nc2nc3c(ncn3C3CC(O)C(COC(c4ccccc4)(c4ccc(OC)cc4)c4ccc(OC)cc4)O3)c(=O)[nH]2)cc1 (centres undefined)
109 to 110 | COc1cc(CCCC2SC(=O)NC2=O)ccc1OCc1nc(-c2ccco2)oc1C (centres undefined)
70 | Cc1c(F)cccc1Cc1c(-c2ccccc2)c2ccccn2c1C(=O)N1CCN(C(=O)OC(C)(C)C)[C@@H](CCO[Si](C)(C)C(C)(C)C)C1
189 to 191 | CC1(C)c2cccnc2C(=O)c2ccc(Cl)cc2S1(=O)=O
79 to 80 | OCc1cn(Cc2ccccc2)nc1OCc1ccccc1
120 to 122 | Cc1cccc(C)c1NC(=O)N=C1CCC(C)N1C (centres undefined)
170 to 172 | C[C@@H](CN1CCc2ccc3c(c21)CCS3)NC(=O)OC(C)(C)C
95 to 96.5 | COc1ccc(/C(=C/C=C/C(=O)Oc2ccc([N+](=O)[O-])cc2)C(C)C)cc1
190 to 191 | O=C(N[C@H](Cc1ccc(C(F)(F)F)cc1)[C@@H](O)c1ccccc1F)c1ccc(F)c2ccccc12 (racemic)
> 260 | COc1cc(C(F)(F)F)cc(OC)c1-c1csc(NC(=O)c2cc3ccccc3[nH]2)n1
